Tests used:
[1] = Gentamicin concentration-time profile measured in the in vitro culture medium
Protocol: (§1) The aminoglycoside reached a peak concentration of 4 mg/l 30 minutes post-dose and was removed from the E. coli culture by washing. Medium containing 0, 2, 2.5 and 3 mg/l gentamicin was reconstituted and added to the culture at 1 hour after initial exposure to the aminoglycoside (n=6).
(§2) With each antibiotic, concentration-time profiles similar to those observed in the blood of clinical patients following conventional intravenous dosing of an aminoglycoside (gentamicin) and pump-driven profiles of gentamicin and cephalosporin (cephazolin) were attained. The concentration-time profiles for each drug class have the general form shown in FIG. IA and FIG. IIIA of the accompanying drawings. Additionally a gentamicin profile of the form shown in FIG. IIIA was generated, which reached a peak of 12 mg/l over 3 hours, was maintained at 12 mg/l for a further hour, then was reconstituted to a range of steady-state concentrations (0, 0.5, 1.0, 2.0, 3.0, 4.0 mg/l) to yield the experimental results shown in Table 4.

[2] = tested on: blood culture isolate of cMRSA; test: Kill kinetics and regrowth patterns of cMRSA exposed to gentamicin profiles and constant beta-lactam; type: cell-based, Staphylococcus aureus
Protocol: FIGS. 5a and 5b Kill kinetics and regrowth patterns of a clinical isolate of cMRSA.
The CMRSA isolate was cultured in the presence of gentamicin (Delta West, Bentleigh, Australia). An overnight culture of cMRSA in brain heart infusion broth (BHIB) (Oxoid, Bainstoke, England) was diluted to 10^7 CFU/ml in 0.1% peptone water (Oxoid, Bainstoke, England). A 1 ml sample of the 10^7 CFU/ml culture was added to the experimental culture broth, resulting in an initial density of 10^6 CFU/ml. In vitro concentration-time modeling of clinical plasma gentamicin concentration-time profiles assumed linear extrapolation of in vivo data as reported previously.^18 (Bastone et al Antimicrobial Agents and Chemotherapy 37(4): 914-917, 1993). […] Other profiles were constructed by linear extrapolation of these profiles and included 7 and 16 mg/l bolus and infusion profiles. Colony counts were performed at times 0, 0.5, 2.5, 4.5, 6.5, 8.5, 10.5, 24.5 and 48.5 hours for bolus profiles and times 0, 1, 3, 5, 7, 9, 11, 25 and 49 hours for infusion profiles.
In the experiments involving cephazolin the concentration was maintained at 4 mg/l in the BHIB for the entire 48.5 hours. For the experiments involving flucloxacillin the concentration of flucloxacillin was maintained at 2 mg/l for 48.5 hours. Colony counts were performed at times 0, 0,5, 2.5, 4.5, 6.5, 8.5, 10.5, 24.5 and 48.5 hours. […] These included cMRSA in a drug free broth, cMRSA exposed to a bolus profile of gentamicin with a target Cpeak 30 of 6 mg/l only, cMRSA exposed to […] of flucloxacillin only.
All experiments involved six replicates. Gentamicin concentrations were measured at times 0, 0.16, 0.33, 0.5, 2.5, 4.5, 6.5, 8.5, 10.5, 24.5 and 48.5 hours. Gentamicin assay concentrations were determined by fluorescence polarisation immunoassay (AxSYM, Abbot, Ill., U.S.A.) which has a threshold for detection of 0.3 mg/liter. […] (Gibaldi et al, pharmaceutics 2nd edn, 1982).
The blood culture cMRSA isolate was exposed to gentamicin in vitro simulating an in vivo bolus dosing regimen with varying 30 minute post dose concentrations of gentamicin. The same organism was then exposed to gentamicin in vitro simulating an in vivo bolus dosing regime with a 30 minute post dose concentration of 6 mg/l and constant concentration of 4 mg/l of cephazolin or 2 mg/l of flucloxacillin for 48 hours.

E. coli NCTC 10418 = test: E. coli counts after gentamicin profile (peak 4 mg/l, then reconstituted maintained concentration); type: cell-based, Escherichia coli
Protocol: as §1
The experimental work described herein involved testing bacterial response while changing aminoglycoside concentrations with time in the test tube, and mimics closely measurements made in man under clinical conditions (Bastone E B, Li S C, Ioannides-Demos L L, Spicer J., McLean A J, “Kill kinetics and regrowth patterns of E. coli exposed to gentamicin concentration-time profiles simulating in vivo bolus or infusion dosing”, Antimicrob Agents Chemother. 37:914-917, 1993).
as §2, with “Table 4. […]” for “Table 4.”

[3] = in vitro profile: peak 4 mg/liter, reconstituted to 3.0 mg/liter at 1 hr, maintained 0 hr (control)
[4] = in vitro profile: peak 4 mg/liter, reconstituted to 3.0 mg/liter at 1 hr, maintained 2 hr
[5] = in vitro profile: peak 4 mg/liter, reconstituted to 3.0 mg/liter at 1 hr, maintained 4 hr
[6] = in vitro profile: peak 4 mg/liter, reconstituted to 3.0 mg/liter at 1 hr, maintained 8 hr
[7] = in vitro profile: post-distribution peak 4 mg/liter, reconstituted at 1 hr to 0 mg/liter
[8] = in vitro profile: post-distribution peak 4 mg/liter, reconstituted at 1 hr to 2.0 mg/liter
[9] = in vitro profile: post-distribution peak 4 mg/liter, reconstituted at 1 hr to 2.5 mg/liter
[10] = in vitro profile: post-distribution peak 4 mg/liter, reconstituted at 1 hr to 3.0 mg/liter

With gentamicin the “AUC 0-49 h” value [1, 3] was 3.93 ± 0.33 µg·h/mL, the Cmax [1, 3] was 6120 ± 350 ng/mL and the Cmin [1, 3] was 0 ng/mL. The “AUC 0-49 h” value [1, 4] was 124.98 ± 3.08 µg·h/mL, the Cmax [1, 4] was 6230 ± 270 ng/mL and the Cmin [1, 4] was 2450 ± 240 ng/mL. For the same substance, the “AUC 0-49 h” value [1, 5] was 120.99 ± 6.05 µg·h/mL, the Cmax [1, 5] was 6300 ± 450 ng/mL and the Cmin [1, 5] was 2370 ± 340 ng/mL. For the same substance, the “AUC 0-49 h” value [1, 6] was 119.78 ± 8.84 µg·h/mL, the Cmax [1, 6] was 6370 ± 220 ng/mL and the Cmin [1, 6] was 2350 ± 190 ng/mL. The “AUC 0-49 h” value [1, 7] was 3.97 ± 0.09 µg·h/mL, the Cmax [1, 7] was 6220 ± 330 ng/mL and the Cmin [1, 7] was 0 ng/mL. The “AUC 0-49 h” value [1, 8] was 102.66 ± 6.91 µg·h/mL, the Cmax [1, 8] was 6320 ± 250 ng/mL and the Cmin [1, 8] was 1930 ± 240 ng/mL. The “AUC 0-49 h” value [1, 9] was 124.40 ± 4.27 µg·h/mL, the Cmax [1, 9] was 6230 ± 230 ng/mL and the Cmin [1, 9] was 2470 ± 310 ng/mL. The “AUC 0-49 h” value [1, 10] was 153.43 ± 11.01 µg·h/mL, the Cmax [1, 10] was 6280 ± 370 ng/mL and the Cmin [1, 10] was 2880 ± 230 ng/mL. The Outcome of exposure ([2]; each agent alone) was “complete kill or eradication was not achieved”, the “Time at which regrowth phase began” value ([2]; gentamicin bolus and infusion profiles, target Cpeak30 7 mg/l) was 24.5 h and the Regrowth ([2]; gentamicin bolus and infusion profiles, target Cpeak30 16 mg/l) was “no regrowth”. The “Time at which early bactericidal effect was evident” value ([2]; gentamicin only, bolus profile Cpeak30 6 mg/l) was no more than 0.5 h, the “BACTERIAL COUNTS” value (E. coli NCTC 10418; peak 4 mg/liter, reconstituted to 3.0 mg/liter at 1 hr, maintained 0 hr (control), 3 hr) was 3.05 ± 0.33 log ^10 (CFU/mL) and the “BACTERIAL COUNTS” value (E. coli NCTC 10418; peak 4 mg/liter, reconstituted to 3.0 mg/liter at 1 hr, maintained 0 hr (control), 11 hr) was 8.89 ± 0.20 log ^10 (CFU/mL). The “BACTERIAL COUNTS” value (E. coli NCTC 10418; peak 4 mg/liter, reconstituted to 3.0 mg/liter at 1 hr, maintained 0 hr (control), 25 hr) was 9.07 ± 0.12 log ^10 (CFU/mL), the “BACTERIAL COUNTS” value (E. coli NCTC 10418; peak 4 mg/liter, reconstituted to 3.0 mg/liter at 1 hr, maintained 0 hr (control), 49 hr) was 9.01 ± 0.06 log ^10 (CFU/mL) and the “BACTERIAL COUNTS” value (E. coli NCTC 10418; peak 4 mg/liter, reconstituted to 3.0 mg/liter at 1 hr, maintained 2 hr, 3 hr) was 0.17 ± 0.41 log ^10 (CFU/mL). The “BACTERIAL COUNTS” value (E. coli NCTC 10418; peak 4 mg/liter, reconstituted to 3.0 mg/liter at 1 hr, maintained 2 hr, 11 hr) was 0.55 ± 0.61 log ^10 (CFU/mL), the “BACTERIAL COUNTS” value (E. coli NCTC 10418; peak 4 mg/liter, reconstituted to 3.0 mg/liter at 1 hr, maintained 2 hr, 25 hr) was 7.95 ± 0.54 log ^10 (CFU/mL) and the “BACTERIAL COUNTS” value (E. coli NCTC 10418; peak 4 mg/liter, reconstituted to 3.0 mg/liter at 1 hr, maintained 2 hr, 49 hr) was 8.89 ± 0.19 log ^10 (CFU/mL). For the same substance, the “BACTERIAL COUNTS” value (E. coli NCTC 10418; peak 4 mg/liter, reconstituted to 3.0 mg/liter at 1 hr, maintained 4 hr, 3 hr) was 0.17 ± 0.41 log ^10 (CFU/mL), the “BACTERIAL COUNTS” value (E. coli NCTC 10418; peak 4 mg/liter, reconstituted to 3.0 mg/liter at 1 hr, maintained 4 hr, 11 hr) was 0.17 ± 0.41 log ^10 (CFU/mL) and the “BACTERIAL COUNTS” value (E. coli NCTC 10418; peak 4 mg/liter, reconstituted to 3.0 mg/liter at 1 hr, maintained 4 hr, 25 hr) was 5.18 ± 4.02 log ^10 (CFU/mL). For the same substance, the “BACTERIAL COUNTS” value (E. coli NCTC 10418; peak 4 mg/liter, reconstituted to 3.0 mg/liter at 1 hr, maintained 4 hr, 49 hr) was 5.99 ± 4.64 log ^10 (CFU/mL), the “BACTERIAL COUNTS” value (E. coli NCTC 10418; peak 4 mg/liter, reconstituted to 3.0 mg/liter at 1 hr, maintained 8 hr, 3 hr) was 0.33 ± 0.52 log ^10 (CFU/mL) and the “BACTERIAL COUNTS” value (E. coli NCTC 10418; peak 4 mg/liter, reconstituted to 3.0 mg/liter at 1 hr, maintained 8 hr, 11 hr) was “NGD”. The “BACTERIAL COUNTS” value (E. coli NCTC 10418; peak 4 mg/liter, reconstituted to 3.0 mg/liter at 1 hr, maintained 8 hr, 25 hr) was “NGD”, the “BACTERIAL COUNTS” value (E. coli NCTC 10418; peak 4 mg/liter, reconstituted to 3.0 mg/liter at 1 hr, maintained 8 hr, 49 hr) was “NGD” and the “BACTERIAL COUNTS” value (E. coli NCTC 10418; post-distribution peak 4 mg/liter, reconstituted at 1 hr to 0 mg/liter, 3 hr) was 3.96 ± 0.70 log ^10 (CFU/mL). For the same substance, the “BACTERIAL COUNTS” value (E. coli NCTC 10418; post-distribution peak 4 mg/liter, reconstituted at 1 hr to 0 mg/liter, 11 hr) was 9.24 ± 0.34 log ^10 (CFU/mL), the “BACTERIAL COUNTS” value (E. coli NCTC 10418; post-distribution peak 4 mg/liter, reconstituted at 1 hr to 0 mg/liter, 25 hr) was 9.15 ± 0.17 log ^10 (CFU/mL) and the “BACTERIAL COUNTS” value (E. coli NCTC 10418; post-distribution peak 4 mg/liter, reconstituted at 1 hr to 0 mg/liter, 49 hr) was 8.93 ± 0.12 log ^10 (CFU/mL). The “BACTERIAL COUNTS” value (E. coli NCTC 10418; post-distribution peak 4 mg/liter, reconstituted at 1 hr to 2.0 mg/liter, 3 hr) was 1.92 ± 1.21 log ^10 (CFU/mL), the “BACTERIAL COUNTS” value (E. coli NCTC 10418; post-distribution peak 4 mg/liter, reconstituted at 1 hr to 2.0 mg/liter, 11 hr) was 7.76 ± 1.06 log ^10 (CFU/mL) and the “BACTERIAL COUNTS” value (E. coli NCTC 10418; post-distribution peak 4 mg/liter, reconstituted at 1 hr to 2.0 mg/liter, 25 hr) was 8.69 ± 0.63 log ^10 (CFU/mL). The “BACTERIAL COUNTS” value (E. coli NCTC 10418; post-distribution peak 4 mg/liter, reconstituted at 1 hr to 2.0 mg/liter, 49 hr) was 9.34 ± 0.27 log ^10 (CFU/mL), the “BACTERIAL COUNTS” value (E. coli NCTC 10418; post-distribution peak 4 mg/liter, reconstituted at 1 hr to 2.5 mg/liter, 3 hr) was 0.33 ± 0.52 log ^10 (CFU/mL) and the “BACTERIAL COUNTS” value (E. coli NCTC 10418; post-distribution peak 4 mg/liter, reconstituted at 1 hr to 2.5 mg/liter, 11 hr) was 0.33 ± 0.52 log ^10 (CFU/mL). The “BACTERIAL COUNTS” value (E. coli NCTC 10418; post-distribution peak 4 mg/liter, reconstituted at 1 hr to 2.5 mg/liter, 25 hr) was 4.85 ± 3.82 log ^10 (CFU/mL), the “BACTERIAL COUNTS” value (E. coli NCTC 10418; post-distribution peak 4 mg/liter, reconstituted at 1 hr to 2.5 mg/liter, 49 hr) was 5.98 ± 4.63 log ^10 (CFU/mL) and the “BACTERIAL COUNTS” value (E. coli NCTC 10418; post-distribution peak 4 mg/liter, reconstituted at 1 hr to 3.0 mg/liter, 3 hr) was 0.33 ± 0.52 log ^10 (CFU/mL). For the same substance, the “BACTERIAL COUNTS” value (E. coli NCTC 10418; post-distribution peak 4 mg/liter, reconstituted at 1 hr to 3.0 mg/liter, 11 hr) was “NGD”, the “BACTERIAL COUNTS” value (E. coli NCTC 10418; post-distribution peak 4 mg/liter, reconstituted at 1 hr to 3.0 mg/liter, 25 hr) was “NGD” and the “BACTERIAL COUNTS” value (E. coli NCTC 10418; post-distribution peak 4 mg/liter, reconstituted at 1 hr to 3.0 mg/liter, 49 hr) was “NGD”.

From patent publication US6858589B2, “Methods of and compositions for potentiating the action of agents active on cell wall sites of the susceptible bacteria” (priority 1996, dated 2005)
